Experimental data taken from ChEMBL document CHEMBL6182878, “Discovery of novel transforming growth factor β type 1 receptor inhibitors through structure-based virtual screening, preliminary structure-activity relationship study, and biological evaluation in hepatocellular carcinoma” (Bioorg Med Chem, 2025).
Active and inactive are the calls of the source. The rule behind the calls is not given here.

Columns and labels:
[1] = test system: Hep 3B2; assay: Induction of apoptosis in human Hep3B cells at 10 uM incubated for 48 hrs by Annexin V-FITC/PI staining based flow cytometry; assay type: functional, cell-based
[2] = biological target: Mothers against decapentaplegic homolog 2 (Homo sapiens) (UniProt Q15796); assay: Inhibition of TGFbeta-induced SMAD2 phosphorylation at S465/467 residues in serum-starved human Hep3B cells preincubated with compound for 30 mins followed by TGFbeta addition and measured after 30 mins by Western blotting analysis; assay type: cell-based; details: dose 1-10 µM, time 60.0 min
Chain of Mothers against decapentaplegic homolog 2 (Homo sapiens) (Q15796 whole entry): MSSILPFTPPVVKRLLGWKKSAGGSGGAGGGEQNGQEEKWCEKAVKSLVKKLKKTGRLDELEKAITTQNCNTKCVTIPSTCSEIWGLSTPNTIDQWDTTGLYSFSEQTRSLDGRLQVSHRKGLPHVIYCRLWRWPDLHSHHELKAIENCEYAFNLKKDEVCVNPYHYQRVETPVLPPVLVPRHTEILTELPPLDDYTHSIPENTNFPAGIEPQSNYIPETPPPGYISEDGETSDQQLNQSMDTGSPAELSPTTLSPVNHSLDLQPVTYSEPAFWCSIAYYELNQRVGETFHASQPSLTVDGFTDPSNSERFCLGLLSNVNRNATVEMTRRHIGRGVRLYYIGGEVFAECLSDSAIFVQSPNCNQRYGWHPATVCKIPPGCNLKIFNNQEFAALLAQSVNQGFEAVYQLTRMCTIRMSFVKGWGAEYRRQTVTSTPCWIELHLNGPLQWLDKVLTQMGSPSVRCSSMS

[3] = test system: Hep 3B2; assay: Induction of apoptosis in human Hep3B cells at 10 uM incubated for 48 to 72 hrs in presence of sorafenib by Annexin V-FITC/PI staining based flow cytometry; assay type: functional, cell-based; details: time 48-72 hrs
[4] = test system: Hep 3B2; assay: Synergistic antiproliferative activity against human Hep3B cells at 1.56 to 3.12 uM in presence of sorafenib; assay type: functional, cell-based; details: dose 1.56-3.12 µM
[5] = test system: Hep 3B2; assay: Growth inhibition of human Hep3B cells incubated for 72 hrs by CCK-8 assay; assay type: functional
[6] = Inhibition of TGFbeta-dependent SMAD2/3 phosphorylation in mouse NIH3T3 cells incubated for 24 hrs by luciferase reporter assay; details: NIH3T3, 24 h
[7] = test system: Hep 3B2; assay: Induction of apoptosis in human Hep3B cells at 5 uM incubated for 72 hrs by Annexin V-FITC/PI staining based flow cytometry; assay type: functional, cell-based

| inhibition [2] | EC50 [6] | Compound | Activity [1] | Activity [3] | Activity [4] | GI50 [5] | Activity [7] |
| --- | --- | --- | --- | --- | --- | --- | --- |
| Dose-dependent-effect | 0.16 µM | Cc1nc(NS(=O)(=O)c2c[nH]c3ncccc23)ccc1Cl | Active | Active | Active; Compound Showed Moderate Activity | 2.28 µM | – |
| Dose-dependent-effect | 0.0477 µM | Cc1cccc(-c2nn3c(c2-c2ccnc4ccc(C(N)=O)cc24)CCC3)n1 [GALUNISERTIB] | – | – | – | 1.07 µM | – |
| – | 0.214 µM | O=S(=O)(Nc1ccc(Cl)cn1)c1c[nH]c2ncccc12 | – | – | – | 2.86 µM | – |
| – | 0.534 µM | COc1ccc(NS(=O)(=O)c2c[nH]c3ncccc23)cc1 | – | – | – | 5.71 µM | – |
| – | – | CNC(=O)c1cc(Oc2ccc(NC(=O)Nc3ccc(Cl)c(C(F)(F)F)c3)cc2)ccn1 | – | – | – | – | Active |
